Test results as given in patent US20250230131A1, “NOVEL IONIZABLE LIPID AND LIPID NANOPARTICLE COMPOSITION USING SAME” (MediciBIO Co., Ltd, priority 2022, published 2025).

Assays:
[1] = Size (diameter) and PDI of lipid nanoparticles by Dynamic Light Scattering; format: physicochemical; settings: lipid nanoparticles of the ionizable lipid; diluted with PBS to mRNA 1 μg/mL; DLS
Method: (§1) The size and surface charge of lipid nanoparticles according to the ionizable lipid prepared in Example 1 were measured. To measure the size of the lipid nanoparticles, dilution was conducted using PBS to reach the concentration of mRNA contained in each lipid nanoparticle to 1 μg/mL, and Dynamic Light Scattering (DLS) of Malvern Zetasizer Nano (Malvern Instruments, UK) was applied to measure the diameter and a polydispersity index (hereinafter referred to as PDI) of lipid nanoparticles. In addition, in order to measure the surface charge of lipid nanoparticles, dilution was conducted using PBS to reach the concentration of mRNA contained in each lipid nanoparticle to 1 μg/mL, and the surface charge (zeta potential) was measured using the same equipment as above.

[2] = Gene encapsulation efficiency, Quant-iT Ribogreen RNA Reagent and Kit; format: physicochemical; settings: lipid nanoparticles, TE buffer vs 2% Triton-TE buffer
Method: To determine a gene encapsulation efficiency of lipid nanoparticles, the Quant-iT™ Ribogreen™ RNA Reagent and Kit was used. A stock solution for the calibration curve was prepared by taking 5 μL of the ribosomal RNA standard (100 μg/mL in TE buffer) and diluting it with either 245 μL of TE buffer or 0.4% Triton-TE buffer, respectively. Aliquots of 2, 5, 10, 25, and 50 μL of the stock solution were taken, diluted with TE buffer or 0.4% Triton-TE buffer to achieve a total volume of 100 μL, and then mixed with 100 μL of Quant-iT™ Ribogreen™ RNA Reagent; the fluorescence intensity (excitation 475 nm and emission 500˜550 nm) was measured to create a calibration curve. A volume of 5 μL of the nanoparticle solution prepared in Example 2 was taken and diluted with 245 μL of TE buffer (10 mM Tris-HCl, 1 mM EDTA, pH 7.5 in DEPC-treated water). After 50 μL of TE buffer or 50 μL of 2% Triton-TE buffer was added to 50 μL of the diluted nanoparticle solution, respectively, the mixture was incubated at 37° C. for about 10 minutes. Afterwards, 40 μL of each mixture was transferred to a microplate, and 60 μL of TE buffer and 100 μL of Quant-iT™ Ribogreen™ RNA Reagent were added sequentially to measure the fluorescence intensity. After calculating the gene dosage (T0) in the TE buffer and the gene dosage (T2) in the 2% Triton-TE buffer by substituting the measured fluorescence intensity into the calibration curve, the gene encapsulation efficiency was calculated using the following Mathematical Equation 1.

HeLa cells = test: Intracellular gene delivery efficacy of FLuc mRNA-LNP (luciferase expression); format: cell-based, human; settings: 0.25 μg/ml encapsulated FLuc mRNA, 6 hours
Method: To determine the intracellular gene delivery efficacy of lipid nanoparticles, lipid nanoparticles encapsulated with FLuc mRNA(Fluc mRNA-LNP) were used. To evaluate the gene delivery efficacy, HeLa cells (Korea Cell Line Bank, Seoul), human cervical cancer cell lines expressing low-density lipoprotein (LDL) receptors on the cell surface, were used, and cultured with the MEM medium containing 10% fetal bovine serum and penicillin/streptomycin at 37° C. in the presence of 5% CO2. HeLa cell lines were seeded at 2×10^4 cells per well in a 96-well plate, and after 16˜24 hours, the cells were treated with lipid nanoparticles at a concentration of 0.25 μg/ml based on encapsulated mRNA, in a total volume of 100 μl MEM medium per well in the absence or the presence of 10% fetal bovine serum (FBS).
To measure the expression of intracellular luciferase after FLuc mRNA delivery by lipid nanoparticles, the cells were washed with PBS after 6 hours of treatment. Then, and 100 μl of Glo-Lysis Buffer (Promega, WI, USA) was added to lyse the cells at room temperature for 5 minutes. The lysed cells were added with 100 μl of Steady-Glo™ Luciferase Assay solution (Promega) in a 1:1 ratio, left at room temperature for 5 minutes, and then transferred to a 96-well white plate. Luminescent values were detected using a GloMax Discover microplate reader (Promega). Recombinant luciferase (Promega) was used as the standard material to generate the calibration curve, which was used to determine the luciferase concentration (pg/ml) in the samples.

[3] = Surface charge (zeta potential) of lipid nanoparticles; format: physicochemical; settings: diluted with PBS to mRNA 1 μg/mL
Method: as §1

[4] = system: mice of the C57BL/6 lineage; test: Gene delivery efficiency in vivo, intravenous injection, liver luciferase expression; settings: C57BL/6 mice, after 4 hours
Method: (§2) In order to identify the gene delivery efficacy and distribution of lipid nanoparticles in vivo, lipid nanoparticles were injected into 7-week-old mice of the C57BL/6 lineage either intravenously or intramuscularly in the thigh. The liver was extracted in the case of intravenous injection and the organs including the femoral muscle were extracted in the case of intramuscular injection by sacrificing the mice after 4 hours.
(§3) To determine the level of luciferase expression in tissue samples, the tissue sections were weighed and transferred to a tube containing 3 mm metal beads, and a homogenized by adding 500 μl of Glo-Lysis Buffer (Promega) per 50 mg of tissue. The supernatant from the centrifuged homogenates was collected and diluted with the Glo-Lysis Buffer to an appropriate ratio. The diluted homogenates and the Steady-Glo Luciferase Assay solution were then mixed in a 1:1 ratio, with 50 μl of each. After a 5-minute incubation, the luminescence values of luciferase were measured using the same method as described in Example 3-1, and the expression levels (ng/g tissue) of luciferase were calculated.

[5] = system: mice of the C57BL/6 lineage; test: Gene delivery efficiency in vivo, intramuscular injection in the thigh, muscle luciferase expression; settings: femoral muscle, C57BL/6 mice, after 4 hours
Method: as §2, §3

| Compound | PDI [1] | Particle size [1] [nm] | Gene encapsulation efficiency [2] [%] | Surface Charge [3] | Luciferase expression level (Mean ± SD) (HeLa cells; 10% FBS) | Luciferase expression level (Mean ± SD) (HeLa cells; w/o FBS) | Luciferase expression level (Mean ± SD) [4] | Luciferase expression level (Mean ± SD) [5] [ng/g] |
| --- | --- | --- | --- | --- | --- | --- | --- | --- |
| CCCCCCCCC(CCCCCC)C(=O)OCCCCCCN(CCCCCCOC(=O)C(CCCCCC)CCCCCCCC)CCC1CCNCC1 (centres unmarked) [Compound 1, ((2-(piperidin-4-yl)ethyl)azanediyl)bis(hexane-6,1-diyl) bis(2-hexyldecanoate)] | 0.09 | 121 | 99.7 | +29.1 mV | 16,060 ± 102 pg/ml | 16,685 ± 646 pg/ml |  |  |
| CCCCCCCCC(CCCCCC)C(=O)OCCCCCCN(CCCCCCOC(=O)C(CCCCCC)CCCCCCCC)CCN1CCNCC1 (centres unmarked) [Compound 2, ((2-(piperazin-1-yl)ethyl)azanediyl)bis(hexane-6,1-diyl) bis(2-hexyldecanoate)] | 0.12 | 106 | 94.9 | +28.1 mV | 8,492 ± 2,375 pg/ml | 15,270 ± 2,273 pg/ml |  |  |
| CCCCCCCCC(CCCCCC)C(=O)OCCCCCCN(CCCCCCOC(=O)C(CCCCCC)CCCCCCCC)Cc1ccc(N)cc1 (centres unmarked) [Compound 3, ((4-aminobenzyl)azanediyl)bis(hexane-6,1-diyl) bis(2-hexyldecanoate)] | 0.18 | 78 | 93.8 | −1.4 mV |  |  |  |  |
| CCCCCCCCC(CCCCCC)C(=O)OCCCCCCN(CCCCCCOC(=O)C(CCCCCC)CCCCCCCC)CCCn1cc(C)nc1C (centres unmarked) [Compound 6, ((3-(2,4-dimethyl-1H-imidazol-1-yl)propyl)azanediyl)bis(hexane-6,1-diyl)bis(2-hexyldecanoate)] |  |  |  |  |  |  | 1,172 ± 99 ng/g | 358 ± 74 |

More lines, main results first:

| PDI [1] | Particle size [1] [nm] | Gene encapsulation efficiency [2] [%] | Surface Charge [3] | Compound | Luciferase expression level (Mean ± SD) (HeLa cells; 10% FBS) | Luciferase expression level (Mean ± SD) (HeLa cells; w/o FBS) | Luciferase expression level (Mean ± SD) [4] | Luciferase expression level (Mean ± SD) [5] [ng/g] |
| --- | --- | --- | --- | --- | --- | --- | --- | --- |
| 0.13 | 84 | 78.2 | +2.0 mV | CCCCCCCCC(CCCCCC)C(=O)OCCCCCCN(CCCCCCOC(=O)C(CCCCCC)CCCCCCCC)CCc1ccc(N)nc1 (centres unmarked) [Compound 4, ((2-(6-aminopyridin-3-yl)ethyl)azanediyl)bis(hexane-6,1-diyl) bis(2-hexyldecanoate)] |  |  | 6,844 ± 2,052 ng/g |  |
| 0.08 | 104 | 93.5 | +19.9 mV | CCCCCCCCC(CCCCCC)C(=O)OCCCCCCN(CCCCCCOC(=O)C(CCCCCC)CCCCCCCC)CCCn1ccnc1C (centres unmarked) [Compound 5, ((3-(2-methyl-1H-imidazol-1-yl)propyl)azanediyl)bis(hexane-6,1-diyl) bis(2-hexyldecanoate)] |  |  | 2,582 ± 745 ng/g | 651 ± 158 |
